Measured values: US20070015803A1, “Methods for treating diseases through interruption of protein maturation, compounds that inhibit the function of molecular chaperones such as protein disulfide isomerases or interfere with glycosylation, pharmaceutical compositions comprising them, and screening methods for identifying therapeutic …” (Romark Laboratories L.C., priority 2005, published 2007)

Columns and labels:
[1] = tested on: IL-1β, IL-6 and TNF-alpha; experiment: Cytokine suppressing ability in cell culture; type: cell-based; details: in particular IL-1β
Neospora caninum [2] = experiment: In vitro or cell culture activity against Neospora caninum (compounds 1-13); type: cell-based
Excerpt: (§1) The following compounds numbered 1-13 in the table below have been synthesized and tested in vitro or in cell culture against Neospora caninum (a protozoan), para-influenza virus, sendai virus, influenza A virus, and/or rhinovirus. In addition, applicant notes that compounds 12 and 13 have shown good activity against viruses and Neospora caninum.

[3] = tested on: para-influenza virus, sendai virus, influenza A virus, and/or rhinovirus; experiment: In vitro or cell culture activity against viruses; type: cell-based
Excerpt: as §1

Neospora caninum [4] = experiment: In vitro efficacy against Neospora caninum (tizoxanide); type: cell-based; details: intracellular protozoan
Excerpt: (§2) Cell culture studies of the mechanism of action by which tizoxanide suppresses rotavirus infection have been carried out. […] Studies have shown that tizoxanide binds to PDI-4 of Giardia intestinalis (an extra-cellular protozoan) and that tizoxanide is effective in vitro against Giardia intestinalis. • b. Studies have shown that tizoxanide binds to PDI isolated from Neospora caninum (intracellular protozoan) and is effective in vitro against this organism. • c. […] Studies in humans have shown that adults with chronic hepatitis B or with chronic hepatitis C can be effectively treated by administering nitazoxanide 500 mg (in tablet form) twice daily for 24 weeks with the patients having undetectable virus DNA or RNA in their serum at the end of treatment.

[5] = tested on: pro-inflammatory cytokines: IL-2, IL-4, IL-5, IL-6, IL-8, IL-10, IL-12 and TNF-alpha; experiment: Secretion of pro-inflammatory cytokines; type: cell-based
Excerpt: as §2

Giardia intestinalis = experiment: In vitro efficacy against Giardia intestinalis; type: cell-based; details: extra-cellular protozoan
Excerpt: as §2

[6] = tested on: PDI-4 of Giardia intestinalis; experiment: Binding to PDI-4 of Giardia intestinalis
Excerpt: as §2

rotavirus [7] = experiment: Cell culture studies of the mechanism by which tizoxanide suppresses rotavirus infection; type: cell-based
Excerpt: as §2

[8] = biological target: T1, PDI isolated from Neospora caninum (Neospora caninum, UniProt F0VAI6); experiment: Binding to PDI isolated from Neospora caninum
T1 construct: PDI isolated from Neospora caninum; from tissue; host or cells: Neospora caninum (parasite material)
Excerpt: as §2

chronic hepatitis C = experiment: Adults with chronic hepatitis C, serum virus RNA; type: in vivo, human; details: 500 mg tablet twice daily for 24 weeks
Excerpt: as §2

chronic hepatitis B = experiment: Adults with chronic hepatitis B, serum virus DNA; type: in vivo, human; details: 500 mg tablet twice daily for 24 weeks
Excerpt: as §2

[9] = Human subject with elevated liver enzymes due to autoimmune hepatitis; type: in vivo; details: 500 mg twice daily orally, 10-day course
Excerpt: as §2

rotavirus [10] = experiment: Children with severe rotavirus disease, versus placebo; type: in vivo, human; details: 7.5 mg/kg twice daily oral, compared to placebo
[11] = tested on: human colon cancer cell lines; experiment: Replication of human colon cancer cell lines and other cell lines; type: cell-based; details: human colon cancer cell lines and a variety of other cell lines
Excerpt: as §2

T1 sequence (F0VAI6 entry or part of it): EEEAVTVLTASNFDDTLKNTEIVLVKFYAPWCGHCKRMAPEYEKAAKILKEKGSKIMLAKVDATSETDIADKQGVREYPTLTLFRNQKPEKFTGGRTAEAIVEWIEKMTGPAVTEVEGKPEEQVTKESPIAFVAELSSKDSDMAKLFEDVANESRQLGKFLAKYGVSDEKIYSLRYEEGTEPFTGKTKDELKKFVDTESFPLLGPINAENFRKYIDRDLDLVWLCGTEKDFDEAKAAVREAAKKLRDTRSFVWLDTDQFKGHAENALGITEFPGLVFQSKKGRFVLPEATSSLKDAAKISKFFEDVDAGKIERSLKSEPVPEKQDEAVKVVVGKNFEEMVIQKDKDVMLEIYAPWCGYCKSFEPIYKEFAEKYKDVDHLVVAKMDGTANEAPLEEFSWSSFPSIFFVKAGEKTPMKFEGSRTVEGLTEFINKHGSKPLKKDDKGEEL

## CC(=O)Oc1c(C)cccc1C(=O)Nc1ncc(Br)s1 [Compound 3]
[1]
  suppression of cytokines: showed activity in suppressing cytokines

## O=C(Nc1cccc(F)c1)c1ccccc1O [Compound 12, N-(3-fluorophenyl)-2-hy-droxybenzamide]
Neospora caninum [2]
  activity against Neospora caninum: good activity
[3]
  activity against viruses: good activity

## O=C(Nc1cccc(Cl)c1)c1ccccc1O [Compound 13, N-(3-chlorophenyl)-2-hy-droxybenzamide]
Neospora caninum [2]
  activity against Neospora caninum: good activity
[3]
  activity against viruses: good activity

## O=C(Nc1ncc([N+](=O)[O-])s1)c1ccccc1O [tizoxanide]
Neospora caninum [4]
  efficacy in vitro: effective
[5]
  secretion of pro-inflammatory cytokines: inhibits secretion
Giardia intestinalis
  efficacy in vitro: effective
[6]
  binding to PDI-4: binds
Rotavirus [7]
  VP7 maturation to a stage allowing glycosylation: prevented VP7 from reaching a stage of maturation that allowed it to be glycosylated
  effect on viral transcription: did not affect
  maturation of virus protein: prevent maturation of virus protein
Rotavirus [7]; single protein identified as VP7
  effect on synthesis and/or maturation of VP7: selectively affects
[8]
  binding to PDI: binds

## CC(=O)Oc1ccccc1C(=O)Nc1ncc([N+](=O)[O-])s1 [nitazoxanide]
Chronic hepatitis C
  virus RNA in serum at end of treatment: undetectable
Chronic hepatitis B
  virus DNA in serum at end of treatment: undetectable
[9]
  liver transaminases: reduced liver transaminases to normal levels
Rotavirus [10]
  duration of illness: significantly reduces the duration of illness
[11]
  replication of cell lines: inhibits the replication
